For one assay, the target named is Cytochrome P450 2C9 (Homo sapiens, UniProt P11712).
A short description of assay [1]: NIH3T3 cell viability loss – ATP luminescence, mouse fibroblasts, counter-screen, dose response (AID 2010).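 Note: cells exposed to compound for about 90 hours before reading.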 In kind it is functional, cell-based. A general note: The purpose of a counterscreen is to sort out artefacts and off-target activity.
The nature of assay [2]: Trypanosoma cruzi growth suppression in host cells – NIH3T3 host cells, beta-gal luminescence, confirmation (AID 2044).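 Note: intracellular parasites grown in NIH/3T3 mouse fibroblasts as host cells; luminescent beta-galactosidase reporter signal from transgenic T. cruzi replicating inside host cells; inhibitors lower the luminescence signal.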 The format is functional, cell-based.
A further assay deals with Cytochrome P450 3A4 (Homo sapiens, UniProt P08684).
The target in assay [3] is T1, Corticotropin-releasing factor receptor 2/Corticotropin-releasing factor-binding protein (Homo sapiens, UniProt P24387+Q13324).
T1 sequence (Q13324 whole entry): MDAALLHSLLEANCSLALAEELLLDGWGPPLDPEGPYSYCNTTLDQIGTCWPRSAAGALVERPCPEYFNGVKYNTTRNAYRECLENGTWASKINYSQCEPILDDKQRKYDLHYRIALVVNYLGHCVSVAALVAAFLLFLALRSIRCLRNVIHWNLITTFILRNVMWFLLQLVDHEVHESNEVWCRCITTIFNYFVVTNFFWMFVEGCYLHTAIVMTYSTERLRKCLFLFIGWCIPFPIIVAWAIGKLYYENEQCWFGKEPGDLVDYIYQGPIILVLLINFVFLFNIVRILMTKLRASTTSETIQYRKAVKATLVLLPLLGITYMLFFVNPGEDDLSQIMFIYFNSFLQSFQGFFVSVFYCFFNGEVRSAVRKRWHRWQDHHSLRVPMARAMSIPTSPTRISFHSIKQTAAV
T1 sequence (P24387 whole entry): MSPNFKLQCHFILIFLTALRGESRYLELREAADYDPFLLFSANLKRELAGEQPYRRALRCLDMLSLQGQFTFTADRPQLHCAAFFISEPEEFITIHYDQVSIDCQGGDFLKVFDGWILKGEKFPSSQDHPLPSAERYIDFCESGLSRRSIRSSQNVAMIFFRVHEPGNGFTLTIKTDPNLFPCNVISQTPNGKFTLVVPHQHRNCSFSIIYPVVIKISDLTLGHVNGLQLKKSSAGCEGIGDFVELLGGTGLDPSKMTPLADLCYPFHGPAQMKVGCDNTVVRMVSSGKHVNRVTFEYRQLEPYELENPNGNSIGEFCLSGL
Briefly: activators of CRF receptor 2 with binding protein – uHTS hits, confirmation (AID 602473). The format is functional. The conditions noted are these: read-out: EC50_Mean.

Assay [4] can be described thus: Luminescence Cell-Based Dose Response HTS to Identify Activators of Luciferase Translation or Activity in H4 […] Cells. [Related pubchem assays: 1829 (Project Summary), 1814 (Primary HTS)]. The format is functional.
For another assay, the system named is H4. Briefly: Luminescence Cell-Based Dose Response HTS to Identify Activators of 5'UTR Stem-Loop Driven Prion Protein mRNA Translation in H4 Neuroglioblastoma Cells. [Related pubchem assays: 1829 (Project Summary), 1814 (Primary HTS)]. In kind it is functional. The conditions noted are these: Homo sapiens.
A further assay is described as follows: cells. In kind it is functional.

Calls of active or inactive are those of the source.

Cytochrome P450 2C9, sequence (P11712 whole entry): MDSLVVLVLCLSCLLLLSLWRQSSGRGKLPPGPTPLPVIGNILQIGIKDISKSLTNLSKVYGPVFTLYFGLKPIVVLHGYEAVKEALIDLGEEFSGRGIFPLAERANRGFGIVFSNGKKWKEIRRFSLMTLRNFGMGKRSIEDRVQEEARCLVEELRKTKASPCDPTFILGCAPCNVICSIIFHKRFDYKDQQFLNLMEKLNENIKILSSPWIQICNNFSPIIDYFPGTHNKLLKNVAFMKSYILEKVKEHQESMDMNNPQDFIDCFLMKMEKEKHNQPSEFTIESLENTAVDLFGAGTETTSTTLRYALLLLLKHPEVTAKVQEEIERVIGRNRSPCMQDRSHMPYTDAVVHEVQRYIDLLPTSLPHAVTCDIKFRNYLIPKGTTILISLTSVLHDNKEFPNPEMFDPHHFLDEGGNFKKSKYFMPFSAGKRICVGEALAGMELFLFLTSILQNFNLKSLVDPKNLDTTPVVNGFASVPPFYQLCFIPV
Cytochrome P450 3A4, sequence (P08684 whole entry): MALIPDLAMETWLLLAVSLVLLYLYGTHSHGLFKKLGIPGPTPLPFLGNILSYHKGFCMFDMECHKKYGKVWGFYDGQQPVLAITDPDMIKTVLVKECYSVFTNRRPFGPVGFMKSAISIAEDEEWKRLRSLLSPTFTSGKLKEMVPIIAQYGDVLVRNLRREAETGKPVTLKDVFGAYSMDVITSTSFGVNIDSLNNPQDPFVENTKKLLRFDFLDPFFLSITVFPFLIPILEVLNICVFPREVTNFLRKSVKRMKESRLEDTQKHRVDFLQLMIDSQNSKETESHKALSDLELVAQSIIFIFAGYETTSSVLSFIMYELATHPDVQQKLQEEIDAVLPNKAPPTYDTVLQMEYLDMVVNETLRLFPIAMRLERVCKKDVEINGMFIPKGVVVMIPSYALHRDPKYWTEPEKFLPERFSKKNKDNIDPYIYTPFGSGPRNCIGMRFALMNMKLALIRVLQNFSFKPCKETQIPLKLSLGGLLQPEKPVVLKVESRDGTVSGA

In general, AC50 refers to the midpoint of the concentration-response curve, whichever way the signal moves. Turning to `CC(C)=CC(=O)OCC(=O)Nc1ncc(Cl)c(C)c1Cl`, on Cytochrome P450 2C9, the concentration at half-maximal activity (AC50) is 0.0631 µM (inconclusive).

With `O=C1CCCN1CC(CN1CCOCC1)Sc1nnnn1-c1ccccc1` (centres undefined), at Cytochrome P450 2C9, the AC50 was 6.31 µM (inconclusive). Regarding `CCOC(=O)c1c(NC(=O)Cn2cnc([N+](=O)[O-])n2)sc(C)c1C`, the EC50 is > 30 µM (not active) in assay [1] and 0.191 µM (active) in assay [2]. As to `O=c1c2ccccc2nc(SCc2ccccc2Cl)n1Cc1ccccc1`, the concentration at half-maximal activity (AC50) on Cytochrome P450 3A4 was 15.8 µM (inconclusive). Still for that read-out and setting: for `c1nc(NCCN2CCOCC2)c2cc(-c3ccoc3)ccc2n1` the value was 15.8 µM (inconclusive). For `CCCCCCc1cc2cc(C(=O)Nc3ccccc3OC)c(=O)oc2cc1O`, in assay [3], the EC50 was 1.97 µM (active). Turning to `CO[C@@H]1COC(=O)C/C=C\[C@H](C)COC(=O)[C@H](Cc2ccccc2)NC(=O)C/C=C\[C@H]1C`, the AC50 on Cytochrome P450 3A4 was 6.31 µM (inconclusive).

As for `CC1CCN(c2cc(N3CCC(C)CC3)c([N+](=O)[O-])cc2/C=C(\C#N)c2nn(-c3ccccc3)c(N)c2C#N)CC1`, at Cytochrome P450 3A4, the concentration at half-maximal activity (AC50) was 3.98 µM (inconclusive). For `COc1ccc(-n2c(=O)cnc3cnc(N4CCNCC4)nc32)cc1`, the AC50 at Cytochrome P450 2C9 was 39.8 µM (inconclusive). `COC(=O)[C@@H]1CC[C@H](C)[C@@H](c2ccc(C)cc2)N1C(=O)c1ccc(/C=N\O[C@@H]2O[C@H](COC(C)=O)[C@H](OC(C)=O)[C@H](OC(C)=O)[C@H]2OC(C)=O)cc1`: at Cytochrome P450 2C9, the concentration at half-maximal activity (AC50) is 1.58 µM (inconclusive). For `Cc1cccc(-c2nsc(SCC(=O)N3CCCC3)n2)c1`, the EC50 in assay [4] is 0.104 µM (active); in the assay with H4, 0.217 µM (active).

For `Cc1ccc(C(C)C)cc1OCC(=O)Nc1ccc(N2CCCCC2)cc1`, the EC50 was > 16 µM (not active) in assay [1] and 2.03 µM (active) in assay [2]. Turning to `COCCn1c(=O)c(-c2ccccc2)nc2cnc(Oc3cccc(Cl)c3)nc21`, at Cytochrome P450 3A4, the AC50 is 20 µM (inconclusive). `COc1ccc(-n2c(=O)c(-c3cccs3)nc3cnc(Oc4ccccc4)nc32)cc1`: on Cytochrome P450 2C9, the half-maximal activity concentration (AC50) was 12.6 µM (inconclusive).

As to `CN1Cc2cccc3c2C(Cc2ccccc2S3)C1` (centres undefined), the values for the EC50 in assay [1] and in assay [2] were > 30 µM (not active) and 0.451 µM (active), respectively. With `COC(=O)[C@@H]1CC[C@H](C)[C@@H](c2ccc(C)cc2)N1C(=O)c1ccc(/C=N\O[C@@H](C)CN2CCCCc3nc(C)c(C)cc32)cc1`, the AC50 at Cytochrome P450 2C9 and at Cytochrome P450 3A4 was 3.16 µM (inconclusive) in each case. For the compound `CC(=O)c1sc2nc(-c3ccccc3)cc(C)c2c1N`, the results for the EC50 in assay [1] and in assay [2] were > 60 µM (not active) and 0.638 µM (active), respectively. As for `CSc1cccc(CN2CCCC(CO)(Cc3cccc(Cl)c3)C2)c1` (centres undefined), the figures for the EC50 in assay [1] and in assay [2] were > 30 µM (not active) and 0.514 µM (active), respectively. `O=C(Nc1ccc(OC(=O)c2cccnc2)cc1)c1cccnc1`: at Cytochrome P450 3A4, the concentration at half-maximal activity (AC50) was 12.6 µM (inconclusive). For the compound `Cc1cc(C)n(-c2cc(N3CCN(C(=O)c4ccc(C(C)(C)C)cc4)CC3)ccc2[N+](=O)[O-])n1`, on Cytochrome P450 3A4, the AC50 was 35.5 µM (inconclusive).

A word on the IC50: it is the concentration that inhibits the measured activity by half. `Cn1c(=O)c(Oc2ccc(F)cc2)c(O)c2ccccc21`: in the assay “cells”, the concentration for half-maximal inhibition (IC50) was 1.87 µM (active). On to `CS(=O)(=O)N(CC(=O)Nc1cccc(F)c1)c1cccc([N+](=O)[O-])c1`, for which, on Cytochrome P450 3A4, the AC50 is 17.8 µM (inconclusive).

As to `CCOc1cc(CNCCc2ccc(S(N)(=O)=O)cc2)cc(Cl)c1OCc1ccccc1`, the EC50 in assay [1] is > 60 µM (not active); in assay [2], 0.373 µM (active).

On to `COc1cccc(NC(=S)N(Cc2ccc(C)cc2)Cc2ccccn2)c1`, for which the values for the EC50 in assay [1] and in assay [2] were > 60 µM (not active) and 0.764 µM (active), respectively. Consider `O=C(Nc1ccccc1)[C@@]12C[C@@H]1/C(=N/O)c1ccccc1O2`, for which, on Cytochrome P450 2C9, the AC50 is 20 µM (inconclusive). On the same count and under the same terms, the result for `O=S(=O)(c1ccccc1)N1CCC[C@@]2(CCN(Cc3nccs3)C2)C1` reads 31.6 µM (inconclusive).

Turning to `CN1CCN(CC(O)c2ccccc2)CC1` (centres undefined), the results for the EC50 in assay [1] and in assay [2] were 31.2 µM (active) and 0.934 µM (active), respectively. Turning to `CCOC(=O)c1cc(CC)sc1NC(=O)C(c1ccccc1)c1ccccc1`, the AC50 on Cytochrome P450 3A4 is 11.2 µM (inconclusive). Turning to `Cc1ccc(C2=NN(C)c3nc4ccccc4n3C2)cc1`, the IC50 in the assay “cells” was 8.22 µM (active). In the case of `COC(=O)C1CC(=O)N(c2ccc(OCc3ccccc3Cl)cc2)C1` (centres undefined), the IC50 in “cells” was 2.2 µM (active). On to `CN1CCC(NC(=O)Nc2ccc(Br)cc2)CC1`, for which the EC50 in assay [1] is > 60 µM (not active); in assay [2], 0.188 µM (active). Consider `CC/C=C\CC[C@H](OC(=O)c1ccc(Br)cc1)C1=CCCCC1=O`, for which the results for the half-maximal activity concentration (AC50) at Cytochrome P450 2C9 and on Cytochrome P450 3A4 were 3.16 µM (inconclusive) and 3.98 µM (inconclusive), respectively. For `COc1cc(-c2nc(-c3cc([N+](=O)[O-])ccc3C)c(-c3ccccc3)[nH]2)cc(OC)c1OC`, the EC50 was > 60 µM (not active) in assay [1] and 0.561 µM (active) in assay [2]. Regarding `CCN1CCc2c(sc(NC(=O)c3ccc(S(=O)(=O)N(CC)c4ccccc4)cc3)c2C(N)=O)C1`, the EC50 in assay [3] is 4.85 µM (active). In the case of `C[C@@H]1C[C@H]2[C@H]3C[C@@H](F)C4=CC(=O)C=C[C@]4(C)[C@@]3(Cl)[C@@H](O)C[C@@]2(C)[C@@H]1C(=O)COC(=O)C(C)(C)C`, at Cytochrome P450 3A4, the concentration at half-maximal activity (AC50) is 0.398 µM (inconclusive). As for `O=C(N/N=C1/C[C@@H](O)[C@@H](O)[C@@H]2[C@H]3C(=O)N(c4ccc(F)cc4F)C(=O)[C@@H]3CC[C@@H]12)OCc1ccccc1`, on Cytochrome P450 3A4, the half-maximal activity concentration (AC50) was 3.98 µM (inconclusive).

`C=CCCCCCCCCC(=O)Nc1cnc(O)nc1O`: the concentration at half-maximal activity (AC50) on Cytochrome P450 3A4 is 10 µM (inconclusive).

Turning to `Cc1c(Cl)cccc1NC(=O)C(=O)NNC(=O)c1ccccc1F`, the IC50 in the assay “cells” is 15 µM (active).

For `Cc1nc2cnc(N(C)C)nc2n(C)c1=O`, at Cytochrome P450 3A4, the AC50 was 15.8 µM (inconclusive). `O=C(NC1CC1)c1cccc2c1C(=O)c1ccc(N3CCC(Cc4ccccc4)CC3)cc1S2(=O)=O`: in assay [3], the EC50 was 7.05 µM (active).

As to `Cc1ccc(CSc2nnc([C@@H]3CCCN3)o2)cc1`, the concentration at half-maximal activity (AC50) at Cytochrome P450 2C9 was 10 µM (inconclusive); at Cytochrome P450 3A4 it was 3.55 µM (inconclusive). Turning to `Cc1ccc(NC(=O)CO/N=C/c2ccc(N(C)C)cc2)cc1`, the IC50 in the assay “cells” is > 50 µM (active). Regarding `COc1ccc2nc(SCC(=O)Nc3ccc4c(c3)OCCO4)[nH]c2c1`, the concentration at half-maximal activity (AC50) at Cytochrome P450 3A4 is 6.31 µM (inconclusive). Take `C=C1[C@@H](O)C2C=CC[C@H](C)C(=O)[C@@](C)(O)C=C[C@@H](OC(C)=O)[C@@]23C(=O)N[C@H](Cc2ccccc2)[C@@H]3[C@@H]1C` (some centres undefined): the AC50 at Cytochrome P450 2C9 was 31.6 µM (inconclusive); at Cytochrome P450 3A4 it was 15.8 µM (inconclusive). Consider `O=C(COc1ccc2ccccc2c1)N/N=C/c1ccccn1`, for which the IC50 in “cells” is > 50 µM (active). As to `Cc1ccc(CN2CCN(/N=C/c3ccc(Cl)c([N+](=O)[O-])c3)CC2)cc1`, the EC50 in assay [1] was > 60 µM (not active); in assay [2], 1.31 µM (active). In the case of `COc1ccccc1CNc1ncnc2ccc(-c3ccc(N(C)C)cc3)cc12`, the half-maximal activity concentration (AC50) on Cytochrome P450 2C9 was 0.631 µM (inconclusive). Consider `Cc1nnc2ccc(-c3cccc(C(F)(F)F)c3)nn12` [CI-218872], for which the AC50 at Cytochrome P450 3A4 is 31.6 µM (inconclusive).
